{"source": "paper PMC8327158", "about": "“PEGylated AdipoRon derivatives improve glucose and lipid metabolism under insulinopenic and high-fat diet conditions” (Journal of Lipid Research, 2021)", "system": "INS-1 cells", "assay": "Ceramide and dihydroceramide levels in PA-stressed INS-1 cells by mass spectrometry", "type": "cell-based, rat", "details": "24 h, PA 0.25 mM; for Ceramides 14:0 / Ceramides 16:0 / Ceramides 18:0 / Ceramides 18:1 / Ceramides 20:0 / Ceramides 22:0 / Ceramides 24:0 / Ceramides 24:1 / Ceramides 26:0 / Ceramides 26:1 / Dihydroceramides 16:0 / Dihydroceramides 18:0 / Dihydroceramides 20:0 / Dihydroceramides 22:0 / Dihydroceramides 24:0 / Dihydroceramides 24:1: INS1 cells, three replicates", "method": "INS-1 cells were seeded at 2 × 10^6/well in a 6-well plate. Cells were treated as follows for 24 h: (i) Control: No FBS or PA (0.25 mM); (ii) Positive Control: 10% FBS + PA (0.25 mM); (iii) Adiponectin (10 nM) + PA (0.25 mM); (iv) AdipoRonPEG6HTL (10 nM) + PA (0.25 mM); (v) AdipoRonPEG6HTL (1 μM) + PA (0.25 mM); (vi) AdipoRonPEG5 (1 μM) + PA (0.25 mM); (vii) AdipoRonPEG5 (20 μM) + PA (0.25 mM). Thereafter, treatment was aspirated, and the cells were washed with cold PBS x 2, scraped off with 1–2 ml PBS, and spun down at 2,500 rpm for 5 min. The supernatant was aspirated, and the pallet was stored at […] for sphingolipid analysis.\nFlash-frozen tissue samples (~40 mg) in a borosilicate glass tube were quenched with 2.0 ml of organic extraction solvent (isopropanol: ethyl acetate, 15:85; v:v) and homogenized with a mechanical tissue disruptor. Immediately afterward, 20 μl of organic internal standard solution was added (Ceramide/Sphingoid Internal Standard Mixture II diluted 1:10 in ethanol). The mixture was vortexed for 20 s and sonicated in ultrasonic bath for 40 min at 40°C. The organic extract was allowed to reach room temperature, and 1.5 ml of HPLC water was added and a two-phase liquid-liquid extraction was performed. The upper phase was transferred to a new clean tube, and the lower aqueous phase containing the protein pellet was re-extracted with additional 2.0 ml of organic extraction solvent. The organic phases were combined and dried under nitrogen stream at 40°C. Dried extracts were stored at –80°C until analysis. For analysis of ceramides and sphingoid base species, the dried residues were reconstituted in 200 μl of methanol. Sphingomyelins required a sample dilution of 1:50 in methanol prior to analysis. Serum sphingolipids were extracted using a similar methodology requiring 25 μl of serum.\nIn total, 5 μl of reconstituted samples was injected into an LC/MS/MS system for the analysis of ceramides and sphingoid bases, and 1 μl injection was required for the analysis of sphingomyelins. The system consisted of a Shimadzu LCMS-8050 triple-quadrupole mass spectrometer with the dual ion source operating in electrospray positive ionization mode. The mass spectrometer is coupled to a Shimadzu Nexera X2 UHPLC system equipped with three solvent delivery modules LC-30AD, three degassing units DGU-20A5R, an autosampler SIL-30ACMP, and a column oven CTO-20AC operating at 40°C (Shimadzu Scientific Instruments, Columbia, MD). Six sphingoid bases (d18:1 sphingosine, d18:1 sphingosine-1-phosphate, d18:1 deoxysphingosine, d18:0 sphinganine, d18:0 sphinganine-1-phosphate, d18:0 deoxysphinganine) and […] ceramide species and their metabolites (C16:0, C16:0 dihydroceramide, C16:0 glucosylceramide, C16:0 lactosylceramide, C16:0 sphingomyelin, C18:0, C18:0 dihydroceramide, C18:0 glucosylceramide, C18:0 sphingomyelin, C18:1, C20:0, C22:0, C22:0 glucosylceramide, C24:0, C24:0 dihydroceramide, C24:0 lactosylceramide, C24:0 sphingomyelin, C24:1, C24:1 dihydroceramide, C24:1 glucosylceramide, C24:1 sphingomyelin). Quantitative analysis of sphingolipids was achieved using selective reaction monitoring scan mode. Lipid separation was achieved by reverse phase LC on a 2.1 (i.d.) × 150 mm Ascentis Express C8, 2.7 micron (Supelco, Bellefonte, PA) column under gradient elution, using three different mobile phases: eluent A consisting of methanol/water/formic acid, 600/400/0.8, v/v/v with 5 mM ammonium formate, eluent B consisting of methanol/formic acid, 1,000/0.8, v/v with 5 mM ammonium formate, and eluent C consisting of CH3OH/CH2Cl2 350/650. The concentration of each metabolite was determined according to calibration curves using the peak-area ratio of analyte versus corresponding internal standard. Calibration curves were generated using serial dilutions of each target analyte.", "note": "Values joined by “and” are separate entries in the source; they are usually repeats but may differ in a detail not shown here. Equal entries are not always repeated."}
{"smiles": "O=C(COc1ccc(C(=O)c2ccccc2)cc1)NC1CCN(Cc2ccc(OCCOCCOCCOCCOCCO)cc2)CC1", "note": "[AdipoRonPEG5]", "values": [{"measurement": "C22:0 and C24:0 ceramides", "setting": "1 μM", "value": "significantly reduced"}, {"measurement": "overall dihydroceramide and ceramides levels", "value": "markedly lowered"}, {"measurement": "Ceramides 14:0", "setting": "1 μM", "value": "11.37 pg/mg and 8.34 pg/mg and 8.44 pg/mg"}, {"measurement": "Ceramides 16:0", "setting": "1 μM", "value": "132.31 pg/mg and 60.25 pg/mg and 97.74 pg/mg"}, {"measurement": "Ceramides 18:0", "setting": "1 μM", "value": "285.84 pg/mg and 108.83 pg/mg and 172.70 pg/mg"}, {"measurement": "Ceramides 18:1", "setting": "1 μM", "value": "2.60 pg/mg and 1.60 pg/mg and 2.34 pg/mg"}, {"measurement": "Ceramides 20:0", "setting": "1 μM", "value": "81.47 pg/mg and 94.91 pg/mg and 71.51 pg/mg"}, {"measurement": "Ceramides 22:0", "setting": "1 μM", "value": "502.13 pg/mg and 501.01 pg/mg and 352.24 pg/mg"}, {"measurement": "Ceramides 24:0", "setting": "1 μM", "value": "985.21 pg/mg and 942.22 pg/mg and 715.38 pg/mg"}, {"measurement": "Ceramides 24:1", "setting": "1 μM", "value": "415.25 pg/mg and 405.60 pg/mg and 306.31 pg/mg"}, {"measurement": "Ceramides 26:0", "setting": "1 μM", "value": "13.63 pg/mg and 11.39 pg/mg and 10.09 pg/mg"}, {"measurement": "Ceramides 26:1", "setting": "1 μM", "value": "4.83 pg/mg and 4.31 pg/mg and 3.39 pg/mg"}, {"measurement": "Dihydroceramides 16:0", "setting": "1 μM", "value": "20.35 pg/mg and 15.35 pg/mg and 22.55 pg/mg"}, {"measurement": "Dihydroceramides 18:0", "setting": "1 μM", "value": "114.43 pg/mg and 74.94 pg/mg and 73.63 pg/mg"}, {"measurement": "Dihydroceramides 20:0", "setting": "1 μM", "value": "37.94 pg/mg and 40.41 pg/mg and 33.11 pg/mg"}, {"measurement": "Dihydroceramides 22:0", "setting": "1 μM", "value": "124.23 pg/mg and 124.34 pg/mg and 96.61 pg/mg"}, {"measurement": "Dihydroceramides 24:0", "setting": "1 μM", "value": "149.67 pg/mg and 168.38 pg/mg and 120.04 pg/mg"}, {"measurement": "Dihydroceramides 24:1", "setting": "1 μM", "value": "47.95 pg/mg and 51.21 pg/mg and 34.41 pg/mg"}, {"measurement": "Ceramides 14:0", "setting": "20 μM", "value": "13.47 pg/mg and 7.61 pg/mg and 10.59 pg/mg"}, {"measurement": "Ceramides 16:0", "setting": "20 μM", "value": "264.29 pg/mg and 93.09 pg/mg and 72.49 pg/mg"}, {"measurement": "Ceramides 18:0", "setting": "20 μM", "value": "442.08 pg/mg and 170.74 pg/mg and 152.01 pg/mg"}, {"measurement": "Ceramides 18:1", "setting": "20 μM", "value": "3.76 pg/mg and 2.21 pg/mg and 1.71 pg/mg"}, {"measurement": "Ceramides 20:0", "setting": "20 μM", "value": "86.19 pg/mg and 75.99 pg/mg and 78.87 pg/mg"}, {"measurement": "Ceramides 22:0", "setting": "20 μM", "value": "345.37 pg/mg and 441.95 pg/mg and 372.15 pg/mg"}, {"measurement": "Ceramides 24:0", "setting": "20 μM", "value": "827.24 pg/mg and 951.19 pg/mg and 835.47 pg/mg"}, {"measurement": "Ceramides 24:1", "setting": "20 μM", "value": "377.12 pg/mg and 400.62 pg/mg and 388.65 pg/mg"}, {"measurement": "Ceramides 26:0", "setting": "20 μM", "value": "9.40 pg/mg and 10.66 pg/mg and 9.87 pg/mg"}, {"measurement": "Ceramides 26:1", "setting": "20 μM", "value": "3.59 pg/mg and 4.43 pg/mg and 3.78 pg/mg"}, {"measurement": "Dihydroceramides 16:0", "setting": "20 μM", "value": "24.81 pg/mg and 12.98 pg/mg and 10.56 pg/mg"}, {"measurement": "Dihydroceramides 18:0", "setting": "20 μM", "value": "94.22 pg/mg and 32.83 pg/mg and 48.23 pg/mg"}, {"measurement": "Dihydroceramides 20:0", "setting": "20 μM", "value": "22.59 pg/mg and 15.72 pg/mg and 18.47 pg/mg"}, {"measurement": "Dihydroceramides 22:0", "setting": "20 μM", "value": "48.91 pg/mg and 46.89 pg/mg and 48.41 pg/mg"}, {"measurement": "Dihydroceramides 24:0", "setting": "20 μM", "value": "58.93 pg/mg and 62.29 pg/mg and 62.49 pg/mg"}, {"measurement": "Dihydroceramides 24:1", "setting": "20 μM", "value": "21.44 pg/mg and 23.79 pg/mg and 23.03 pg/mg"}]}
